What all share (format): physicochemical
The nature of data set [1]: Thermogravimetric analysis (TGA). The settings on record: sample no. 79. As to the method: 4. Thermogravimetric Analysis (TGA)
TG analyses were performed using a TA Instruments 2950 and Q5000 thermogravimetric analyzer. Temperature calibration was performed using nickel and Alumel™. Each sample was placed in an aluminum pan and inserted into the TG furnace. The furnace was heated under a nitrogen purge.
The method code for the thermogram (shown by the list of Figures in the “Brief Description of the Figures” section above) is an abbreviation for the start and end temperature as well as the heating rate; e.g., 25-350-10 means “from 25° C. to 350° C., at 10° C./min”.

A short description of data set [2]: Correlated thermogravimetric-infrared analysis (TG-IR). The settings on record: sample no. 79. The method, then: 5. Correlated Thermogravimetric—Infrared Analysis (TG-IR)
Thermogravimetric infrared (TG-IR) analysis was performed on a TA Instruments thermogravimetric (TG) analyzer model 2050 interfaced to a Magna-IR 560® Fourier transform infrared (FT-IR) spectrophotometer (Thermo Nicolet) equipped with an Ever-Glo mid/far IR source, a potassium bromide (KBr) beamsplitter, and a mercury cadmium telluride (MCT-A) detector. The FT-IR wavelength verification was performed using polystyrene, and the TG calibration standards were nickel and Alumel™. The sample was placed in a platinum sample pan, and the pan was inserted into the TG furnace. The TG instrument was started first, immediately followed by the FT-IR instrument. The TG instrument was operated under a flow of helium at 90 and 10 cc/min. for the purge and balance, respectively. The furnace was heated under […] at a rate of 20° C./minute to a final temperature of 250° C. IR spectra were collected approximately every 32 seconds for approximately 13 minutes. Each IR spectrum represents 32 co-added scans collected at a spectral resolution of 4 cm^−1. Volatiles were identified from a search of the High Resolution Nicolet Vapor Phase spectral library.

Data set [3] is described as follows: X-ray powder diffraction (XRPD). As to the method: 3. X-ray Powder Diffraction (XRPD)
Selected XRPD patterns were collected with an Inel XRG-3000 diffractometer. An incident beam of Cu Kα radiation was produced using a fine-focus tube and a parabolically graded multilayer mirror. Prior to the analysis, a silicon standard (NIST SRM 640c) was analyzed to verify the Si 111 peak position. A specimen of the sample was packed into a thin-walled glass capillary, and a beam-stop was used to minimize the background from air. Diffraction patterns were collected in transmission geometry using Windif v. 6.6 software and a curved position-sensitive Equinox detector with a […] of 120°.
Selected XRPD patterns were collected using a Bruker D8 DISCOVER diffractometer and Bruker's General Area-Detector Diffraction System (GADDS, v. 4.1.20). An incident microbeam of Cu Kα radiation was produced using a long, fine-focus tube (40 kV, 40 mA), a parabolically graded multilayer mirror, and a 0.5 mm double-pinhole collimator. Prior to the analysis, a silicon standard (NIST SRM 640c) was analyzed to verify the Si 111 peak position. […]
XRPD patterns for microplate samples were collected using a Bruker D8 DISCOVER diffractometer and Bruker's General Area-Detector Diffraction System (GADDS, v. 4.1.20). […] Prior to the analysis, a silicon standard (NIST SRM 640c) was analyzed to verify the Si 111 peak position. […]

SMILES strings stand for the structures.

Turning to `Fc1cc(F)c2c(c1)C[C@@H](n1c(CCNCc3ccccc3)c[nH]c1=S)CO2` [Form B, 1-[(3R)-6,8-difluoro-3,4-dihydro-2H-1-benzopyran-3-yl]-1,3-dihydro-5-[2-[(phenylmethyl)amino]ethyl]-2H-imidazole-2-thione], in data set [1], the “TGA sharp weight loss (onset)” value was “Sharp weight loss at ~254 °C (onset)”. The TGA weight loss in data set [1] (between ~138° C. and ~190° C.) was ~4.7 wt % loss between ~138 °C and ~190 °C. The “TG-IR (IR) identification of volatile” value in data set [2] is “(IR): Consistent with loss of ethyl acetate”. Besides, the XRPD result in data set [3] (sample no. 48 (crystallized from tetrahydrofuran/ethyl acetate)) and in data set [3] (sample no. 79 (organic vapor stress of amorphous material in ethyl acetate)) was “Crystalline consistent with Form B of compound 2” in each case.

Values taken from patent US8865913B2, “Crystalline forms and processes for their preparation” (BIAL-Portela & C.A., S.A, priority 2010, dated 2014).
